The source of these data is the pKa sets of Baltruschat and Czodrowski (2020).

Each structure is given as a SMILES string.

Take `CN(C)c1ccc(C(O)(c2ccccc2)c2ccc(N(C)C)cc2)cc1`: the pKa (usually the negative logarithm of the acid dissociation constant) (basic group) came to 6.93. The same measure, in the same setting: for `Nc1cc(C[NH3+])ccc1Cl` the value was 3.71; for `N#CCC(N)c1ccccc1` (configuration not stated), 6.7. For `Cc1cccc(S(=O)(=O)O)c1`, where the note is “acidic group”, the pKa is -6.56. As to `CC(C)[NH2+]CC(=O)c1ccc(O)cc1`, where the note is “acidic group”, the pKa came to 7.56.

Take `ONc1ncnc2nc[nH]c12`: the pKa reads like this: (acidic group) 9.83; (basic group) 3.8. For the setting “acidic group”, `O=C1CCc2cc(I)ccc2C1` displayed a pKa of 12.4.

Under “basic group”, `Nc1ccc2cc3ccccc3nc2c1` showed a pKa of 8.04. The compound `O=N/C(Cc1ccccc1)=N\O` gave a pKa (acidic group) of 5.3. On the same count and under the same terms, in the case of `N#CC(Cc1ccccc1)C(=O)O` (configuration not stated) it was 2.24. `O=C(O)c1ccco1`: the pKa runs as follows: (acidic group) 3.18; (basic group) -0.53. Consider `C(=C/c1ccncc1)/c1ccncc1`, for which the pKa (basic group) was 5.57. Compound `O=P(O)(O)C([NH2+]Cc1cc[nH+]cc1)c1ccccc1O` (configuration not stated) showed a pKa (acidic group) of 2.28. Compound `OB(O)CCc1ccccc1` returned a pKa (acidic group) of 10. Compound `O=P([O-])([O-])c1cn2c(n1)[C@@H](O)[C@H](O)[C@@H](O)[C@@H]2CO` gave a pKa (basic group) of 7.69.

Compound `C=C(C)/C=C(\O)C=C(C)C` had a pKa (acidic group) of 10.8. For `CCOc1ccc2[nH]c(C)nc2c1`, for the setting “basic group”, the pKa is 6.22. Regarding `Oc1cccc(I)c1`, the pKa (acidic group) is 9.02. Compound `[NH3+]CCCCc1ccncc1` gave a pKa (basic group) of 5.81.

Compound `Oc1cc(-c2ccccc2)n(-c2ccccc2)n1` registered a pKa (acidic group) of 12.9.

Where the note is “basic group”, `CCN(CC)CC(=O)Nc1cc(C)cc(C)c1` returned a pKa of 8.01. Regarding `[NH3+]CCS`, where the note is “acidic group”, the pKa turned out to be 8.4. In the case of `Cn1cc(N)cc1C(=O)[O-]`, the pKa (basic group) came out at 7. Same read-out and setting: for `Nc1ncc2ccccc2n1` the value was 4.8; for `Cc1cc(C)c(C[NH3+])cc1N`, 4.57. The same measure, in the same setting: in the case of `C1CCC(NC2CCCCO2)OC1` (configuration not stated) it was 8.1.

The compound `CC(C)(C)N1C2CCCC21` (configuration not stated) yielded a pKa (basic group) of 9.22. The compound `O=C1O[C@@H]([C@@H](O)CO)C(O)=C1O` yielded a pKa (acidic group) of 4.16.

In turn, `O=C(O)C(CO)[NH2+]Cc1cc([N+](=O)[O-])ccc1O` (configuration not stated) showed a pKa (acidic group) of 2.15. Regarding `O=C(CC(=O)c1ccccc1)Nc1ccc([N+](=O)[O-])cc1`, the pKa (acidic group) stood at 8.91. `CCN(CC)CCCCCCCC(C)Nc1c2ccc(Cl)cc2nc2ccc(OC)cc12` (configuration not stated) displayed a pKa (basic group) of 10.4. In turn, `N=C1Cc2ccccc2N1` registered a pKa (basic group) of 8.15. Still for that read-out and setting: for `C[C@H](N)[C@H](O)c1ccccc1` the value was 8.81; for `CN(C)[C@H]1CC[C@@H](C)CC1`, 10.5.

`CN(C)Cc1ccccc1CO` registered a pKa (basic group) of 8.78. On the same count and under the same terms, in the case of `Nc1ncnc2nn([C@@H]3C[C@@H](O)[C@H](CO)O3)nc12` it was 3.1. As to `CC(C)(Cl)C(=O)O`, the pKa (acidic group) is 2.97. For `COc1c(CN)cc(C)cc1CN`, where the note is “basic group”, the pKa stood at 8.85. In turn, `O=[N+]([O-])c1ccc(S(=O)O)cc1` registered a pKa (acidic group) of 1.86. For the setting “basic group”, `CC(=O)n1cccn1` registered a pKa of 3.16. The same measure, in the same setting: in the case of `COc1ccc2[nH]cc(CC(C)N)c2c1` (configuration not stated) it was 10.3; in that of `Nc1nc([S-])c2ncn([C@H]3O[C@@H](CO)[C@H](O)[C@@H]3O)c2n1`, 8.34.

With `O=C(O)/C=C/SC1CCCCC1`, the pKa (acidic group) is 4.7. The compound `Cc1cnc2c(ccc3c(C)ccnc32)c1C` had a pKa (basic group) of 5.99. Under “basic group”, `N=C(SCc1ccccc1)c1ccccc1` returned a pKa of 4.43.

Under “acidic group”, `Oc1nc([S-])nc2nc[nH]c12` came in with a pKa of 10.3. Still for that read-out and setting: for `C(CSCCc1nnn[nH]1)SCCc1nnn[n-]1` the value was 5.64. For the compound `C[Si](C)(CN)c1ccccc1`, the pKa (basic group) was 10.4.

As to `CSc1nc(N)c2[nH]cnc2n1`, the pKa was 10.2 (acidic group) and 3.1 (basic group). Regarding `COc1cc(OC)nc(NS(=O)(=O)c2ccc(N)cc2)n1`, the pKa (acidic group) is 7.12.

For the setting “basic group”, `Cc1ccc(N)cc1-c1cc(N)ccc1C` showed a pKa of 5. `O=C1Cc2cc(O)ccc21` returned a pKa (acidic group) of 7.24. Still for that read-out and setting: for `S=C(Nc1ccc(Cl)cc1)c1ccccc1` the value was 10.8; for `O=C/C(O)=C\[O-]`, 13. Under “basic group”, `CCN(CC)CCC#N` yielded a pKa of 7.62.

Consider `O/N=C/c1ccncc1`, for which the pKa runs as follows: (acidic group) 9.91; (basic group) 4.58. Take `CC(C)[C@H]1C[NH2+][C@H](C(=O)[O-])[C@H]1CC(=O)O`: the pKa (acidic group) worked out at 4.23. As for `COc1cc(C(N)=O)ccc1-c1nc2nn(C)cc2[nH]1`, the pKa by setting is: (acidic group) 12.3; (basic group) 3.98. For the compound `C[NH+](C)CCCCCCNC(=O)/C=N/O`, the pKa (acidic group) worked out at 8.93. Consider `FC(F)(F)c1ncnc2nc[nH]c12`, for which, for the setting “acidic group”, the pKa is 7.35. The same measure, in the same setting: for `CO[C@H]1C[C@@H]1C(=O)O` the value was 4.47.

Compound `CN1CCNCC1` returned a pKa (basic group) of 9.6. In the case of `O=C(O)C(F)c1ccccc1` (configuration not stated), the pKa (acidic group) is 2.45. Turning to `O=C(O)c1cc([N+](=O)[O-])ccc1Sc1ccccc1`, the pKa (acidic group) came to 3.22. Still for that read-out and setting: for `[O-][N+]([O-])=C(CO)CO` the value was 13.5. For `CC(C)CSC(=N)c1ccccc1`, the pKa (basic group) amounted to 8.22. The same measure, in the same setting: for `Cc1ccc(N)c(N)c1` the value was 5; for `Cn1c(=O)c2[nH]cnc2n(C)c1=O`, 8.64.

`C/C=C/C1=C(O)C(=O)c2ccccc2C1=O` displayed a pKa (acidic group) of 4.78.

With `C1CCCNCCC1`, the pKa (basic group) was found to be 10.8. `[NH3+]CCCCCCCCC(=O)O` returned a pKa (acidic group) of 4.53.

`CC(C)CCSC(=N)c1ccccc1` returned a pKa (basic group) of 8.43.

With `OCCC[C@@H]1CC[C@@H]2CCCN12`, for the setting “basic group”, the pKa turned out to be 11.5. Same read-out and setting: in the case of `CN(O)Cc1ccccc1` it was 4.6. `O=C(O)c1cccc(Cl)c1` had a pKa (acidic group) of 3.8. The compound `Clc1ccccn1` gave a pKa (basic group) of 0.72. On the same count and under the same terms, for `CO[C@H]1C=CC2=CCN3CC[C@H](CO)/C(=C\CO)[C@]23C1` the value was 7.79; for `CN(C)c1ncnc2c1cnn2C`, 4.06; for `CC(C)(C)N`, 10.7. In the case of `N#CC(C#N)=NNc1ccccc1Br`, the pKa runs as follows: (acidic group) 6.35; (basic group) -0.8.

For the setting “acidic group”, `O=C(O)C1(O)CCCC1` showed a pKa of 4.11. Consider `Cc1cccc(C)c1C(=N)c1ccccc1`, for which the pKa (basic group) came to 7.71. Still for that read-out and setting: in the case of `N#Cc1ccc(N)cc1` it was 1.74. As for `[O-]c1cc(O)nc[nH+]1`, the pKa (acidic group) came out at 5.4.

On to `CCN(C)N`, for which the pKa (basic group) came to 7.3.

As to `O=C1O[C@@H]([C@H](O)CO)C([O-])=C1O`, the pKa (acidic group) came to 11.6. Under “basic group”, `OCCNCCO` yielded a pKa of 9.04. The compound `CC[NH2+]CC(=O)O` returned a pKa (acidic group) of 2.31.

In turn, `c1cnc2ccc3ncccc3c2c1` yielded a pKa (basic group) of 4. With `Cc1cc(C=O)c(O)c(C=O)c1`, under “acidic group”, the pKa worked out at 6.2. `[NH3+]c1ccc(-c2ncc(-c3ccc(Br)cc3)o2)cc1`: the pKa (basic group) was -0.05.

The compound `Clc1ccc(CNc2ncnc3[nH]ncc23)cc1` had a pKa (basic group) of 3.96. Same read-out and setting: in the case of `C1CN(CCN2CCOCC2)CCO1` it was 6.65. `Cc1ccnc(NS(=O)(=O)c2ccc(Cl)cc2)n1`: the pKa (acidic group) stood at 5.37. `CCc1c(C)nn(-c2ccccc2)c1O` showed a pKa (acidic group) of 11.5.

Compound `CC(C)(C)P(=O)(O)C(C)(C)C` had a pKa (acidic group) of 4.24. For the setting “acidic group”, `Cn1cc(O)[nH+]c1N` displayed a pKa of 4.9. On the same count and under the same terms, for `Brc1ccc2c(c1)-c1ccccc1C2[P+](c1ccccc1)(c1ccccc1)c1ccccc1` (configuration not stated) the value was 7.53. Consider `CC(=O)N(C)c1ccccn1`, for which the pKa (basic group) stood at 2.01. Take `Nc1nc(NCO)nc(NCO)n1`: for the setting “basic group”, the pKa amounted to 4.65.

Compound `CC(=O)CC(C)=O` yielded a pKa (acidic group) of 8.85. On the same count and under the same terms, in the case of `Nc1nc2nc[n-]c2c(N)[n+]1[O-]` it was 12; in that of `Oc1cc(O)cc(O)c1`, 8.83; in that of `COc1ccc(C(=S)Nc2ccc(Cl)c(Cl)c2)cc1`, 10.1. The same measure, in the same setting: in the case of `Cn1c(-c2ccccc2O)[nH+]c2ccccc21` it was 5.76. `Nc1ncnc(N)c1N` came in with a pKa (basic group) of 5.78. Same read-out and setting: for `COCCNc1ccc(C)cc1` the value was 4.64. `CC(N)CCc1ccc(O)cc1` (configuration not stated): the pKa (basic group) was found to be 9.14. With `CCC(=O)NBr`, under “acidic group”, the pKa is 8.2. As for `[S-]c1ncccn1`, the pKa (basic group) came out at 7.2.

In the case of `C1CCN(CCN2CCCC2)C1`, for the setting “basic group”, the pKa stood at 9.47. Same read-out and setting: for `O=[N+]([O-])c1ccc(O)c2ncccc12` the value was 2.88. Still for that read-out and setting: for `CC1=NCCCC1` the value was 9.57.

Regarding `O=C1CCCC1=O`, the pKa (acidic group) turned out to be 9.14. With `[NH3+]CCC(=O)NC(Cc1c[nH]cn1)C(=O)[O-]` (configuration not stated), the pKa (basic group) was 7.08.

For the compound `Cn1c(-c2ccccn2)nc2ccccc21`, where the note is “basic group”, the pKa was determined as 4.47. On to `[O-][n+]1c2ccccc2[n+](O)c2ccccc21`, for which the pKa (acidic group) was -1.62. As to `Oc1cccc2nccnc12`, the pKa amounted to 8.8 (acidic group) and 0.85 (basic group).

The compound `CCC(N)CCCl` (configuration not stated) yielded a pKa (basic group) of 8.53. Same read-out and setting: in the case of `Oc1ccccc1CN1CCCCC1` it was 8.6. Under “acidic group”, `O=C(O)CC1NC(=O)c2ccccc2O1` (configuration not stated) yielded a pKa of 4.9. Where the note is “basic group”, `CCc1ccnc2c1ccc1c(CC)ccnc12` returned a pKa of 5.6. On the same count and under the same terms, for `Nc1ccnnc1` the value was 6.69. Compound `NC(=S)C(N)=S` came in with a pKa (acidic group) of 10.9. `COc1ccc(CN)c([N+](=O)[O-])c1`: where the note is “basic group”, the pKa turned out to be 8.77. Same read-out and setting: in the case of `CC1=CC(=C2C=CC=CC=C2)C=C(C)C1=O` it was 6.26; in that of `C[NH+](C)CCNCCN`, 9.12; in that of `Nc1ccc2cncnc2c1`, 4.6. For `[NH3+]CCC[SeH]`, the pKa (acidic group) amounted to 6.27.

`CCN1CCCC1CNS(=O)(=O)c1ccc(OC)c(OC)c1OC` (configuration not stated): the pKa (basic group) came to 8.7. In turn, `C=CCN(CC=C)CCCNC(=O)/C=N/[O-]` returned a pKa (basic group) of 9.34. The same measure, in the same setting: for `Cc1cc(=O)n(C)n1-c1ccccc1` the value was 2.4. As for `CCCC(C)C1(CC)C(=O)N=C([O-])NC1=O` (configuration not stated), under “acidic group”, the pKa stood at 12.4.

As to `[NH3+]Cc1ccccn1`, the pKa (basic group) is 3.1. With `COc1cc(C(N)=O)ccc1-c1nc2c(ncn2C)[nH]1`, the pKa worked out at 11.7 (acidic group) and 3.8 (basic group). On to `Cc1cc(C)c(CN)cc1N`, for which the pKa (basic group) is 9.77.

`Clc1cn[nH]c1` showed a pKa (basic group) of 1.24. Still for that read-out and setting: in the case of `NC1=N[C@H]2C[C@@H](N1)N[C@@H]2C(=O)[O-]` it was 12.6; in that of `[O-]c1c(Cl)cc(Cl)c(Cl)c1CN1CCOCC1`, 8.83.
